Results reported in patent publication US7732430B2, “Drug delivery system comprising a tetrahydroxilated estrogen for use in hormonal contraception” (Pantarhei Bioscience B.V., priority 2001, dated 2010).
Where two headings read alike, the source gives them in different places.

Assays:
four-day cyclic rats = assay: Antiovulatory bioassay after oral administration; assay type: in vivo, rat; details: for ED50: Rattus norvegicus, 96 h
Description: A bioassay method (modified according to De Visser et al., 1984, Arzneim. […].
Rats are spontaneously ovulating, polyestrous mammals. Generally, proestrus lasts for 12 to 14 hours, estrus for 25 to 27 hours, metestrus for 6 to 8 hours, and diestrus for 55 to 57 hours (Freeman, 1988, In: The Physiology of Reproduction, E Knobil and J Neill (eds). Raven Press, Ltd, New York, pp. 1893-1928). These stages of the estrous cycle can be classified based on the cell types present in daily vaginal smears (Schwartz, 1969, Recent Prog. Horm. Res. 25, 1-55).
The preovulatory period of the rat estrous cycle is characterized by ovarian follicular growth and enhanced estrogen secretion. In the four-day cyclic rat, peripheral plasma levels of E2 are basal through estrus. At the end of metestrus and extending through early diestrus, plasma levels of E2 begin to rise. This increase continues through diestrus and early proestrus to reach peak values and plateau by mid-proestrus. Subsequently, E2 levels fall rapidly, reaching basal values by the early morning hours of estrus. The rising estrogen levels from late metestrus to early proestrus exert a positive feedback effect on the hypothalamic-pituitary axis resulting in a luteinizing hormone (LH) surge on the afternoon of proestrus. The LH surge induces follicular rupture and the release of ova in the early morning hours of estrus. By early afternoon on the day of estrus, ova are present in the ampulla of the oviduct and are readily visualized under a dissecting microscope.
Progesterone or levonorgestrel administered subcutaneously on diestrus to four-day cyclic rats is known to inhibit ovulation and increased the estrous cycle length in a dose-dependent manner (Beattie and Corbin, 1975, Endocrinology 97, 885-890). It was shown that the progestational block of ovulation takes place predominately via the hypothalamic-pituitary axis.
Vaginal smears from female rats were obtained daily for two weeks to identify four-day cycling rats. Only four-day cyclic rats were used for the antiovulatory bioassay. […] Twice daily dosing continued for an additional 3 consecutive days. One day after the final dose (day 5), the rats were euthanized by CO2 asphyxiation at approximately 1 pm, and the number of ova per oviduct was determined and recorded. Group means were calculated for the number of ova per ovulated rat (both oviducts). The ratio of rats ovulating for each treatment group was compared to the ratio for the vehicle-treated rats.

[1] = target: T1, human sex Hormone Binding Globulin (SHBG) (Homo sapiens, UniProt P04278); assay: Competitive steroid-binding assay for human SHBG; details: for relative binding affinity for human SHBG: rank order ethinylestradiol < 17β-estradiol < testosterone < 5α-dihydrotestosterone
T1 construct: Human SHBG was purified from transgenic mouse serum; made in house; host or cells: transgenic mouse (serum)
T1 sequence (P04278 30-402): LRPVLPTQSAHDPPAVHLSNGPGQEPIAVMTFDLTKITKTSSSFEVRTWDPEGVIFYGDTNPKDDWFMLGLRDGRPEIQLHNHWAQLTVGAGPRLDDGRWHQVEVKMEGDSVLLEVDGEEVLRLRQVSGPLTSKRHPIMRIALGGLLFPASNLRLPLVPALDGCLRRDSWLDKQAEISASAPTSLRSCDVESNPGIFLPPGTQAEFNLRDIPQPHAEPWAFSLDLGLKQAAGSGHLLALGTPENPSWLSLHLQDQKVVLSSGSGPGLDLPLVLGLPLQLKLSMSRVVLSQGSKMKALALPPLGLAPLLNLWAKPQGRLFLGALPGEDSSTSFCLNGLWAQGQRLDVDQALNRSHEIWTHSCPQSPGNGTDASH
Description: Human SHBG was treated for 30 min at room temperature with a dextran-coated charcoal (DCC) suspension in phosphate buffered saline (PBS) to remove any steroid ligand. After centrifugation (2,000×g for 10 min) to sediment the DCC, the supernatant containing the human SHBG was diluted in PBS to a concentration of 1 nM based on its steroid binding capacity.
The average amounts of [^3H]labeled ligands bound to SHBG at each concentration of competitor (B) were expressed as a percentage of the average amounts of [^3H]labeled ligands bound to SHBG in the absence of competitor (B0), and were plotted against the concentration of competitor in each assay tube.

[2] = system: ovariectomized adult rats; assay: Vaginal cornification bioassay after oral administration; assay type: in vivo, rat; details: 0.1 and 0.3 mg/kg/day po
Source text: Uterine weight increase in the rat is more commonly used as a measure of estrogenicity. […] In the early 1920s it was discovered that follicular fluid from the pig ovary contained a factor(s) that caused cornification/keratinization of the vaginal epithelium in the rat (Allen and Doisy, 1923, JAMA, 81, 819-821; Allen and Doisy, 1924, Am. J. Physiol., 69, 577-588). The so-called vaginal cornification response in rats subsequently provided a bioassay for testing estrogenicity. Vaginal epithelial cornification/keratinization in ovariectomized rats can be produced only by compounds considered to be true estrogens (Jones et al, 1973, Fert. Steril. 24, 284-291). […] Adult intact female CD rats were ovariectomized to induce estrogen deficiency. […] Castrate vaginal smears are indicative that complete ovariectomy was achieved. Treatment commenced following completion of the 7 days of smearing (day 0=first day of dosing). Animals were dosed, once daily for 7 consecutive days. Daily vaginal lavages continued to be obtained for 7 days after dosing was initiated in order to detect vaginal cornification, as an indication of an estrogenic response. A drop of vaginal washings was placed on a glass slide and examined by light microscopy to detect the presence or absence of cornified epithelial cells. Vaginal lavages were obtained prior to dosing on days 0-6 and prior to necropsy on day 7. […]

[3] = intravenous, two adult women, tritium labeled; cited from earlier work
nonpregnant ewes = details: intravenously administered; cited from earlier work
[4] = system: human breast cancer cells (MCF-7); details: MCF-7, long term tissue culture; cited from earlier work
immature rat uterus = details: subcutaneous, cited from earlier work
[5] = target: T2, estrogen receptors in the human endometrium (Homo sapiens, UniProt P03372); details: Tseng et al. 1978; cited from earlier work
T2 construct: estrogen receptors in the human endometrium; host or cells: human endometrium (nuclei)
T2 sequence (P03372 1-595): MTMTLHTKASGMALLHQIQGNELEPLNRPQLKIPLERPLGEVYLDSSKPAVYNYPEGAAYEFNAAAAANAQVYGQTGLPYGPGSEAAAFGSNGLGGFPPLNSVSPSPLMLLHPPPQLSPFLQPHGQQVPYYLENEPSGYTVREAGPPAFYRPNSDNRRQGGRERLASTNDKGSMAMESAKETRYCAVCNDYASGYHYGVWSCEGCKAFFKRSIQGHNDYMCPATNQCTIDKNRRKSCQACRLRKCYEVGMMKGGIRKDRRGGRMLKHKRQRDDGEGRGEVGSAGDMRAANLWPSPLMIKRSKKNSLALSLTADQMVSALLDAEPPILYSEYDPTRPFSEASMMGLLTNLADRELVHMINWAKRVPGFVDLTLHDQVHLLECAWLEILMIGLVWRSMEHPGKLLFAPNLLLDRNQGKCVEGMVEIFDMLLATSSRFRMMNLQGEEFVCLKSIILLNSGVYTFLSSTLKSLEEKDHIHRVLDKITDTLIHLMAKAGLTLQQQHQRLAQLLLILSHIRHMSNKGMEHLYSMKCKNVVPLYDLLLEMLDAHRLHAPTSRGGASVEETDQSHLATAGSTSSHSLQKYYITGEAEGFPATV

[6] = target: T3, rat uterine cytosol estrogen receptor (Rattus norvegicus, UniProt P06211); details: cited from earlier work
T3 construct: rat uterine cytosol estrogen receptor; host or cells: rat uterus (cytosol and nuclear fractions)
T3 sequence (P06211 1-600): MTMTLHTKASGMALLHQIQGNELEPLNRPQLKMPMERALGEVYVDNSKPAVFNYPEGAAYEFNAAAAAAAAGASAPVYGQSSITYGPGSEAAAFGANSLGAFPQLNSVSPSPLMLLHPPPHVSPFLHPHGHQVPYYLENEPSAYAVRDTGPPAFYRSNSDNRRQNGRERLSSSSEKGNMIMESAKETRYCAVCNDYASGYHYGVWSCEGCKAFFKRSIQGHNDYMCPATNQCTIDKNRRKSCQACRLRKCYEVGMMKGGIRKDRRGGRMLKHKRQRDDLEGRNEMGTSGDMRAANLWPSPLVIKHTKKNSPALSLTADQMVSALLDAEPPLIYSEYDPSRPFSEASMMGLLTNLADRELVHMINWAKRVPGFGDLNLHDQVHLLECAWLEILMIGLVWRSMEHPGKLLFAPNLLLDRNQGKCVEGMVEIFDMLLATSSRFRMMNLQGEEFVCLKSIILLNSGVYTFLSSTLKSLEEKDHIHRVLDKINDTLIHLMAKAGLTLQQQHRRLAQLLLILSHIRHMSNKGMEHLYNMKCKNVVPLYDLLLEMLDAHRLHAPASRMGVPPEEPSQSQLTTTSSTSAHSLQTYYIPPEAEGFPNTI

[7] = target: T4, rat uterine nuclear estrogen receptor (Rattus norvegicus, UniProt P06211); details: cited from earlier work
T4 construct: rat uterine cytosol estrogen receptor; host or cells: rat uterus (cytosol and nuclear fractions)
T4 sequence (P06211 1-600): T3 sequence (P06211 1-600)

[8] = 30 μg/kg po twice daily for 4 days
[9] = 100 μg/kg po twice daily for 4 days
[10] = 300 μg/kg po twice daily for 4 days
[11] = 1000 μg/kg po twice daily for 4 days
[12] = 3000 μg/kg po twice daily for 4 days

| Compound | ovulation blocked (rats of 8) (four-day cyclic rats; [8]) | ovulation blocked (rats of 8) (four-day cyclic rats; [9]) | ovulation blocked (rats of 8) (four-day cyclic rats; [10]) | ovulation blocked (rats of 8) (four-day cyclic rats; [11]) | ovulation blocked (rats of 8) (four-day cyclic rats; [12]) | ED50 (four-day cyclic rats; po twice daily for 4 days) | relative binding affinity for human SHBG [1] | further results |
| --- | --- | --- | --- | --- | --- | --- | --- | --- |
| C[C@]12CC[C@@H]3c4ccc(O)cc4CC[C@H]3[C@@H]1CC[C@@H]2O [E2, 17β-estradiol, reference compound] | ineffective in inhibiting ovulation | 7 of 8 | 8 of 8 | 8 of 8 | 8 of 8 | 0.03 to 0.1 mg/kg | – | – |
| C#C[C@]1(O)CC[C@H]2[C@@H]3CCc4cc(O)ccc4[C@H]3CC[C@@]21C [EE, 17α-ethinyl estradiol, reference compound] | – | – | – | – | – | 0.01 mg/kg | – | – |
| C[C@]12CC[C@H]3[C@@H](CCC4=CC(=O)CC[C@@]43C)[C@@H]1CC[C@@H]2O [testosterone, reference compound] | – | – | – | – | – | – | in this order, show an increased relative binding affinity | – |
| C[C@]12CC[C@@H]3c4ccc(O)cc4CC[C@H]3[C@@H]1[C@@H](O)[C@@H](O)[C@@H]2O [estetrol, 1,3,5(10)-estratrien-3,15α,16α,17β-tetrol] | failed to inhibit ovulation | 2 of 8 | 5 of 8 | 7 of 8 | 8 of 8 | 0.182 mg/kg | negligible | onset of vaginal cornification (animals responding at days 1-3) [2]: as fast as in EE-treated animals; antiovulatory potency compared with E2 (four-day cyclic rats; po twice daily for 4 days): approximates the antiovulatory potency of E2; antiovulatory potency, times less potent than ethinylestradiol (four-day cyclic rats; po twice daily for 4 days): 18 times; binding to human SHBG ([1]; [3H]DHT as labeled ligand): does not bind at all; binding to human SHBG ([1]; [3H]estradiol as labeled ligand): does not bind at all; excretion [3]: rapidly and completely excreted in urine as the glucosiduronate; metabolism [3]: virtually no metabolism except for conjugation; potency in uterine vasodilation, times less potent than estriol and 17β-estradiol (nonpregnant ewes): 15 to 30 times; agonistic potency relative to 17β-estradiol in cell proliferation [4]: 2%; uterotrophic activity (immature rat uterus; Holinka et al. 1979): very weak uterotrophic activity; uterotrophic activity (immature rat uterus; Holinka et al. 1980): very weak uterotrophic activity; relative binding, % of 17β-estradiol [5]: 1.5%; relative binding affinity, 17β-estradiol = 100% [6]: 0.5%; relative binding affinity, 17β-estradiol = 100% [7]: 0.3% |
| C[C@]12CCC(=O)C[C@@H]1CC[C@@H]1[C@@H]2CC[C@]2(C)[C@@H](O)CC[C@@H]12 [5α-dihydrotestosterone, reference compound] | – | – | – | – | – | – | in this order, show an increased relative binding affinity | – |
